Experimental data reported in patent publication US7671009B2, “Dermopharmaceutically and cosmetically active oligopeptides” (DSM IP Assets B.V., priority 2001, dated 2010).
*: point of attachment. Palmitoyl = CCCCCCCCCCCCCCCC(=O)*

System: Collagen Synthesis Type I+III in Fibroblast Cell Cultures (ATCC CCL110)
Assay: Stimulation of collagen synthesis type I+III in fibroblast cell cultures, Sirius Red microassay
Assay type: cell-based
Settings: 24 hours incubation, control without active = 100%
Protocol: The collagen I and III content in fibroblasts is measured with the Sirius Red microassay. The quantitative determination of collagen is carried out after 24 hours of incubation with the corresponding oligopeptide derivatives. The extracellularly accumulated collagen is determined. Vitamin C and TGF-beta-1 are used as positive controls.
ATCC CCL110 fibroblasts are incubated in culture medium at a density of approx. 125,000 cells/well in 6-well cell culture plates for 2 days (37° C./5% CO2). Afterwards, the medium is discarded and washed twice with PBS, whereupon 1 ml of test medium with corresponding test substances is added. After incubation with test substance under culture conditions (37° C./5% CO2) for further 24 hours, the extracellular collagen is measured with the Sirius Red assay.
After the incubation period, the total volume of test medium (1 ml) is transferred into a flat-bottom 24-well plate and dried overnight at 55° C. The samples are fixed with 1 ml/well of Bouin's fluid for 1 hour at room temperature (RT). The fixing solution is discarded and the plates are washed 2-3 times with water. After drying of the plates, 1 ml of Sirius Red dye reagent is added.
The samples are shaken for 1 hour at RT on a microplate agitator at moderate intensity. Afterwards, the Sirius Red dye reagent is discarded and the plates are washed with 0.01N HCl. The tinted material is dissolved in 0.3 ml of 0.1N NaOH solution and shaken on a microplate agitator for 1 hour at RT.
200 μl of solution is transferred into a flat-bottom 96-well plate and the optical density is measured at 540 nm against 0.1N NaOH solution as the blank.
Culture medium: MEM+10% FCS+100 IU/ml penicillin+0.1 mg/ml streptomycin+1 mM non essential amino acids+1 mM Na-pyruvate+2 mM L-glutamine.
Test medium: DMEM without phenol red (AMIMED)+100 IU/ml penicillin+0.1 mg/ml streptomycin+80 μg/ml beta(β)-aminopropionitrile.
Vitamin C 100 mM (SIGMA A4034) is diluted to 50 μg/ml in the test medium.
Transforming growth factor TGFβ1 1 μg/ml (SIGMA T1654) is diluted to 0.1 ng/ml in the test medium.
The oligopeptide derivatives of the present invention are prepared in a regular concentration of 10 mM and diluted to 50 μM in the test medium.
Sirius Red F3BA dye reagent as the stock solution 1 mg/ml in saturated aqueous picric acid solution. Bouin's fluid: 15 ml of saturated aqueous picric acid solution+5 ml of formaldehyde+1 ml of acetic acid.

Molecule	collagen type I + III after 24 hours, Extracellular (test substance 50 μM) [%]	further results
O=C1O[C@H]([C@@H](O)CO)C(O)=C1O [Vitamin C, reference compound]		collagen type I + III after 24 hours, Extracellular (Vitamin C positive control, diluted to 50 μg/ml in test medium): 128%
H-Dab-Ser-OH × 2 TFA	131	
H-Lys-Thr-Thr-Dab-Ser-OH × 3 AcOH	137	
H-Lys-Thr-allo-Thr-Lys-Ser-OH × 3 AcOH	134	
H-Lys-allo-Thr-allo-Thr-Lys-Ser-OH × 3 AcOH	139	
Lipoyl-Lys (Lipoyl)-Thr-Thr-Lys (Lipoyl)-Ser-OH	162	
Palm-Lys-Thr-Ser-Lys-Ser-OH (Palmitoyl-KTSKS-OH; SMILES CCCCCCCCCCCCCCCC(=O)N[C@@H](CCCCN)C(=O)N[C@H](C(=O)N[C@@H](CO)C(=O)N[C@@H](CCCCN)C(=O)N[C@@H](CO)C(=O)O)[C@@H](C)O)	128	
TGFβ1: Transforming growth factor TGFβ1 (SIGMA T1654), positive control [reference compound]		collagen type I + III after 24 hours, Extracellular (0.1 ng/ml): 115%
